The compounds below were run against Endothelial lipase (EL) (Homo sapiens (Human), UniProt Q9Y5X9) (assay: Endothelial lipase (EL) activity assay with fluorescent substrate A10070 in DMPG vesicles).
Assay type: biochemical
Procedure: Endothelial lipase activity was measured using a fluorescent substrate, A10070, (Invitrogen, CA) doped into an artificial vesicle containing DMPG (Avanti Polar Lipids) as the excipient. Vesicles were prepared by combining 285 μL of 1 mM DMPG in a 1:1 mixture of MeOH and CHCl3 with 15 μL of 1 mM A10070 in a 1:1 mixture of MeOH and CHCl3. The mixture was dried under nitrogen and resuspended in 150 μL of 50 mM HEPES pH 8.0 buffer containing 100 mM NaCl and 0.2 mM EDTA. The sample was allowed to sit at rt for 15 min and then was sonicated 3×4 mins on ice with a Branson Sonicator using duty cycle 1. This preparation provides vesicles with a mole fraction of 0.05 for the FRET substrate.
The enzymatic assay was measured using white, opaque 96-well half area plates. Each well contained 60 μL of assay buffer (50 mM HEPES pH 8.0, 50 mM NaCl and 1 mM CaCl2) and 2 ul of a DMSO solution containing compound of interest. Conditioned media obtained from HT-1080 cells, which were transformed by RAGE technology (Athersys) to overexpress endogenous EL, was added and the reaction was allowed to incubate for 20 min at 37° C. with gentle agitation. The reaction was started by the addition of 20 μL of a 1:4 dilution of vesicles. The final total reaction volume was 100 μL. The reaction rates were measured on a Gemini plate reader with an excitation wavelength of 488 nm and an emission of 530 nm. Readings were taken every 20 seconds for 10 min with agitation between each reading. The slope of the linear portion of the readout was used to calculate the rate of the reaction.

Sequence of Endothelial lipase (EL) (Q9Y5X9 21-500): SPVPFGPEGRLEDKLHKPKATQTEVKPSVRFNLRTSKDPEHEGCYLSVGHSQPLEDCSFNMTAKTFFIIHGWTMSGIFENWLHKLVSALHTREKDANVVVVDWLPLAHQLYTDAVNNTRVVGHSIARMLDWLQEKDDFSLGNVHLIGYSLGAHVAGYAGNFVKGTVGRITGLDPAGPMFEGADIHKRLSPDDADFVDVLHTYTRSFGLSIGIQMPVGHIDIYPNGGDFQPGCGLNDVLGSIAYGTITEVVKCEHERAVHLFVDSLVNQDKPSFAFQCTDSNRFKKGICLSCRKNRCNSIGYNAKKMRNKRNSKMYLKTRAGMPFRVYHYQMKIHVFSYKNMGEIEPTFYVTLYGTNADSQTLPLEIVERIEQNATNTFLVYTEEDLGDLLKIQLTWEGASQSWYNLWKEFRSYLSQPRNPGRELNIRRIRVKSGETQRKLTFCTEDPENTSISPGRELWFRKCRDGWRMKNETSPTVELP

IC50 | Compound
290 nM | O=C(c1nnc(NC2CC2)o1)c1nc2ccc(-c3ccc(F)cc3)cc2s1 [Example 66, (5-(cyclopropylamino)-1,3,4-oxadiazol-2-yl)(6-(4-fluorophenyl)benzo[d]thiazol-2-yl)methanone]
29 nM | Nc1nnc(C(=O)c2nc3ccc(-c4ccccc4)cc3s2)o1 [Example 89, (5-Amino-1,3,4-oxadiazol-2-yl)(6-phenylbenzo[d]thiazol-2-yl)methanone]
25 nM | NC(=O)NCc1nnc(C(=O)c2nc3ccc(-c4ccccc4)cc3s2)o1 [Example 49, 1-((5-(6-Phenylbenzo[d]thiazole-2-carbonyl)-1,3,4-oxadiazol-2-yl)methyl)urea]
< 10 nM | O=C(c1nnc(N(CC(F)(F)F)[C@H]2CCNC2=O)o1)c1nc2ccc(-c3ccccc3)cc2s1 [Example 84, (S)-3-((5-(6-Phenylbenzo[d]thiazole-2-carbonyl)-1,3,4-oxadiazol-2-yl)(2,2,2-trifluoroethyl)amino)pyrrolidin-2-one]
180 nM | O=C(c1nnc(NCCc2ccncc2)o1)c1nc2ccc(-c3ccccc3)cc2s1 [Example 73, (6-phenylbenzo[d]thiazol-2-yl)(5-((2-(pyridin-4-yl)ethyl)amino)-1,3,4-oxadiazol-2-yl)methanone]
35 nM | O=C(c1nnc(N(Cc2nnc(C3CC3)o2)[C@H]2CCNC2=O)o1)c1nc2ccc(-c3ccccc3)cc2s1 [Example 85, (S)-3-(((5-Cyclopropyl-1,3,4-oxadiazol-2-yl)methyl)(5-(6-phenylbenzo[d]thiazole-2-carbonyl)-1,3,4-oxadiazol-2-yl)amino)pyrrolidin-2-one]
< 10 nM | CC(C)(C)OC(=O)N1CCC(c2nnc(C(=O)c3nc4ccc(-c5ccccc5)cc4s3)o2)CC1 [Example 20, tert-butyl 4-(5-(6-phenylbenzo[d]thiazole-2-carbonyl)-1,3,4-oxadiazol-2-yl)piperidine-1-carboxylate]
450 nM | O=C(c1nnc(N2CC[C@H](c3ccccc3)C2)o1)c1nc2ccc(-c3ccccc3)cc2s1 [Example 80, (R)-(6-phenylbenzo[d]thiazol-2-yl)(5-(3-phenylpyrrolidin-1-yl)-1,3,4-oxadiazol-2-yl)methanone]
190 nM | CN1CCC(Nc2nnc(C(=O)c3nc4ccc(-c5ccccc5)cc4s3)o2)C1=O (stereo not shown) [Example 70, 1-methyl-3-((5-(6-phenylbenzo[d]thiazole-2-carbonyl)-1,3,4-oxadiazol-2-yl)amino)pyrrolidin-2-one]
< 10 nM | O=C(c1nnc(C2CCN(Cc3ccc(OC(F)(F)F)cc3)CC2)o1)c1nc2ccc(-c3ccccc3)cc2s1 [Example 23, (6-Phenylbenzo[d]thiazol-2-yl)(5-(1-(4-(trifluoromethoxy)benzyl)piperidin-4-yl)-1,3,4-oxadiazol-2-yl)methanone]
240 nM | COc1ccc(CCNc2nnc(C(=O)c3nc4ccc(-c5ccc(F)cc5)cc4s3)o2)cc1 [Example 62, (6-(4-fluorophenyl)benzo[d]thiazol-2-yl)(5-((4-methoxyphenethyl)amino)-1,3,4-oxadiazol-2-yl)methanone]
< 10 nM | O=C(c1nnc(N[C@H]2CCNC2=O)o1)c1nc2ccc(-c3ccc(F)cc3)cc2s1 [Example 54, (S)-3-((5-(6-(4-fluorophenyl)benzo [d]thiazole-2-carbonyl)-1,3,4-oxadiazol-2-yl)amino)pyrrolidin-2-one]
< 10 nM | CC1(Cc2nnc(C(=O)c3nc4ccc(-c5ccccc5)cc4s3)o2)NC(=O)NC1=O (stereo not shown) [Example 32, 5-methyl-5-((5-(6-phenylbenzo[d]thiazole-2-carbonyl)-1,3,4-oxadiazol-2-yl)methyl)-imidazol-idine-2,4-dione]
< 10 nM | O=C(c1nnc(C2CCN(c3ncccn3)CC2)o1)c1nc2ccc(-c3ccccc3)cc2s1 [Example 7, (6-phenylbenzo[d]thiazol-2-yl)(5-(1-(pyrimidin-2-yl)piperidin-4-yl)-1,3,4-oxadiazol-2-yl)methanone]
88 nM | NS(=O)(=O)CCNc1nnc(C(=O)c2nc3ccc(-c4ccccc4)cc3s2)o1 [Example 72, 2-((5-(6-phenylbenzo[d]thiazole-2-carbonyl)-1,3,4-oxadiazol-2-yl)amino)ethanesulfonamide]
110 nM | COCCNc1nnc(C(=O)c2nc3ccc(-c4ccccc4)cc3s2)o1 [Example 52, (5-((2-methoxyethyl)amino)-1,3,4-oxadiazol-2-yl)(6-phenylbenzo[d]thiazol-2-yl)methanone]

IC50 | Compound
20 nM | CC(C)(C)CN1CC(c2nnc(C(=O)c3nc4ccc(-c5ccccc5)cc4s3)o2)C1 [Example 42]
150 nM | CC(C)NC(=O)CNc1nnc(C(=O)c2nc3ccc(-c4ccccc4)cc3s2)o1 [Example 74, N-isopropyl-2-((5-(6-phenylbenzo [d]thiazole-2-carbonyl)-1,3,4-oxadiazol-2-yl)amino)acetamide]
11 nM | O=C(c1nnc(N(Cc2ccccc2)[C@H]2CCNC2=O)o1)c1nc2ccc(-c3ccccc3)cc2s1 [Example 87, (S)-3-(Benzyl(5-(6-phenylbenzo[d]thiazole-2-carbonyl)-1,3,4-oxadiazol-2-yl)amino)pyrrolidin-2-one]
< 10 nM | NS(=O)(=O)c1ccc(-c2ccc3nc(C(=O)c4nnc(N[C@H]5CCNC5=O)o4)sc3c2)cc1 [Example 83, (S)-4-(2-(5-((2-oxopyrrolidin-3-yl)amino)-1,3,4-oxadiazole-2-carbonyl)benzo[d]thiazol-6-yl)benzenesulfonamide]
< 10 nM | CC(C)N1C(=O)NC(C)(Cc2nnc(C(=O)c3nc4ccc(-c5ccccc5)cc4s3)o2)C1=O (stereo not shown) [Example 39, 3-isopropyl-5-methyl-5-((5-(6-phenylbenzo-[d]thiazole-2-carbonyl)-1,3,4-oxadiazol-2-yl)methyl)-imidazol-idine-2,4-dione]
36 nM | NS(=O)(=O)NCCc1nnc(C(=O)c2nc3ccc(-c4ccccc4)cc3s2)o1 [Example 28, N-(2-(5-((6-phenyl-1,3-benzothiazol-2-yl)carbonyl)-1,3,4-oxadiazol-2-yl)ethyl)sulfamide]
340 nM | Cc1ccc(S(=O)(=O)Nc2nnc(C(=O)c3nc4ccc(-c5ccccc5)cc4s3)o2)cc1 [Example 90, 4-Methyl-N-(5-(6-phenylbenzo[d]thiazole-2-carbonyl)-1,3,4-oxadiazol-2-yl)benzenesulfonamide]
490 nM | O=C(c1nnc(N2CC[C@H](OCc3ccccc3)C2)o1)c1nc2ccc(-c3ccccc3)cc2s1 [Example 81, (S)-(5-(3-(benzyloxy)pyrrolidin-1-yl)-1,3,4-oxadiazol-2-yl)(6-phenylbenzo[d]thiazol-2-yl)methanone]
290 nM | O=C(c1nnc(NCCc2ccccc2F)o1)c1nc2ccc(-c3ccc(F)cc3)cc2s1 [Example 63, (5-((2-fluorophenethyl)amino)-1,3,4-oxadiazol-2-yl)(6-(4-fluorophenyl)benzo[d]thiazol-2-yl)methanone]
11 nM | CC1(Cc2nnc(C(=O)c3nc4ccc(-c5ccccc5)cc4s3)o2)NC(=O)N(CC(F)(F)F)C1=O (stereo not shown) [Example 38, 5-methyl-5-((5-(6-phenylbenzo[d]thiazole-2-carbonyl)-1,3,4-oxadiazol-2-yl)methyl)-3-(2,2,2-trifluoro-ethyl)imidazol-idine-2,4-dione]
49 nM | O=C(c1nnc(NCCc2ccccc2)o1)c1nc2ccc(-c3ccc(F)cc3)cc2s1 [Example 59, (6-(4-fluorophenyl)benzo[d]thiazol-2-yl)(5-(phenethylamino)-1,3,4-oxadiazol-2-yl)methanone]
< 10 nM | O=C(c1nnc(CCc2ncc(-c3ccccc3)o2)o1)c1nc2ccc(-c3ccccc3)cc2s1 [Example 9, (6-phenylbenzo[d]thiazol-2-yl)(5-(2-(5-phenyloxazol-2-yl)ethyl)-1,3,4-oxadiazol-2-yl)methanone]
< 10 nM | O=C(Cc1nnc(C(=O)c2nc3ccc(-c4ccccc4)cc3s2)o1)NC1CC1 [Example 50, N-Cyclopropyl-2-(5-(6-phenylbenzo[d]thiazole-2-carbonyl)-1,3,4-oxadiazol-2-yl)acetamide]
99 nM | COC(=O)N[C@H]1CC[C@H](c2nnc(C(=O)c3nc4ccc(-c5ccccc5)cc4s3)o2)CC1 [Example 6, methyl ((1R,4R)-4-(5-(6-phenylbenzo[d]thiazole-2-carbonyl)-1,3,4-oxadiazol-2-yl)cyclohexyl)carbamate]
56 nM | O=C(c1nnc(NCCc2ccc(F)cc2)o1)c1nc2ccc(-c3ccc(F)cc3)cc2s1 [Example 60, (5-((4-fluorophenethyl)amino)-1,3,4-oxadiazol-2-yl)(6-(4-fluorophenyl)benzo[d]thiazol-2-yl)methanone]

Compound | IC50
COC(=O)[C@H](COC(C)(C)C)Nc1nnc(C(=O)c2nc3ccc(-c4ccc(F)cc4)cc3s2)o1 [Example 61, (S)-methyl 3-(tert-butoxy)-2-((5-(6-(4-fluorophenyl)benzo[d]thiazole-2-carbonyl)-1,3,4-oxadiazol-2-yl)amino)propanoate] | 140 nM
O=C(c1nnc(CC2CCNC2=O)o1)c1nc2ccc(-c3ccccc3)cc2s1 (stereo not shown) [Example 1] | < 10 nM
O=C(c1nnc(CC2CCNC2=O)o1)c1nc2ccc(-c3ccccc3)cc2s1 (stereo not shown) [Example 3, 3-((5-(6-phenylbenzo[d]thiazole-2-carbonyl)-1,3,4-oxadiazol-2-yl)methyl)pyrrolidin-2-one] | < 10 nM
